Data published in the Kinase Knowledgebase extract (Sharma et al. 2016).

What follows are compounds tested against PIK3CA (human) (UniProt P42336) (assay: Assessment of PIK3CA Kinase Activity).
Sequence of PIK3CA (human) (P42336 whole entry, looked up): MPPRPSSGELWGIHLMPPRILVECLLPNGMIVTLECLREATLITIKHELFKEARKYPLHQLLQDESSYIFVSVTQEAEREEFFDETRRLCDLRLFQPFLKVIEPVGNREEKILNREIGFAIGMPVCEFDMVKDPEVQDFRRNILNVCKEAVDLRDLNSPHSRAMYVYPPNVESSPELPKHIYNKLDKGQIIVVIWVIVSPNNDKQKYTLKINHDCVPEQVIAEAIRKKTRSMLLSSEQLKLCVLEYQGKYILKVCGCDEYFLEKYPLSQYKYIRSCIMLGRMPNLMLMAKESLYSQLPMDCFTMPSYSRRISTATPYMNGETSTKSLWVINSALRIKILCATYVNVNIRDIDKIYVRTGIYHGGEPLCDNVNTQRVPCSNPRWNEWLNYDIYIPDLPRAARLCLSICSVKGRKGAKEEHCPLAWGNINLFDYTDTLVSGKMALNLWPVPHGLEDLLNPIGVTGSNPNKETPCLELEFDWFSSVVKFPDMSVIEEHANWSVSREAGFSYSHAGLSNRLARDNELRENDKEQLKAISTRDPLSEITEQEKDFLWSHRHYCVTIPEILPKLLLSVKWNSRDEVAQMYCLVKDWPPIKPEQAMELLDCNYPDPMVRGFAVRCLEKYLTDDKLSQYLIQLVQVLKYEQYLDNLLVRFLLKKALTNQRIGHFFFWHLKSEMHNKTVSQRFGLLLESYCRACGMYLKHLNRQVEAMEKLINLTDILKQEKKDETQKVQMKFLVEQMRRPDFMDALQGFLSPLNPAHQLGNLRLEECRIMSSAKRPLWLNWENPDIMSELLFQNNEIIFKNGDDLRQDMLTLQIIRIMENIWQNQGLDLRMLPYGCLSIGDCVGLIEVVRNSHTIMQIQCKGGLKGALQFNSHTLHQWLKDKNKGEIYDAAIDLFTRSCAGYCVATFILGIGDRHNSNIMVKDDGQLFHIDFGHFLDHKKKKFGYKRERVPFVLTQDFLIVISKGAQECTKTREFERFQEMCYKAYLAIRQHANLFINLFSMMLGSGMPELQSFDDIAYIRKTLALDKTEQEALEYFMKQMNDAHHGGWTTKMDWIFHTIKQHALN
Compound `CC(C)n1ncnc1-c1nc2c(s1)CCOc1ccc(C3CN(CCO)C3)cc1-2` has an IC50 of under 1000 nM.
`O=C(c1nc2c(s1)CCOc1cc(-c3cn[nH]c3)ccc1-2)N1CCN(c2ncccn2)CC1` was tested, and the IC50 was under 1000 nM.
In the case of `CC(C)n1nc(N)nc1-c1nc2c(s1)CCOc1cc(C(=O)NC3CN(C)C3)ccc1-2`, the IC50 is reported as under 1000 nM.
`C[C@H](O)CNC(=O)c1ccc2c(c1)OCCc1sc(-c3ncnn3CC(F)(F)F)nc1-2` gave an IC50 of under 1000 nM.
Work on `CC(C)C[C@@H](CO)NC(=O)c1nc2c(s1)CCOc1cc(-c3cn[nH]c3)ccc1-2` yielded an IC50 of under 1000 nM.
`CC(C)(O)Cn1cc(-c2ccc3c(c2)OCCc2sc(-c4nccn4C4COC4)nc2-3)cn1` was tested, and the IC50 was under 1000 nM.
`OC1CCN(c2ccc3c(n2)-c2sc(-c4ncnn4-c4ccc(F)cc4F)cc2CCO3)CC1` gave an IC50 of under 1000 nM.
In the case of `O=C(c1nc2c(s1)CCOc1cc(-c3cn[nH]c3)ccc1-2)N1CCN(CC2CC2)CC1`, the IC50 is reported as under 1000 nM.
`Cc1ncccc1-c1ccc2c(c1)-c1nc(C(=O)N(CCO)C(C)C)sc1CCO2` was tested, and the IC50 was under 1000 nM.
`CC(C)n1ncnc1-c1nc2c(s1)CCOc1cc(C3CN(CCS(C)(=O)=O)C3)ccc1-2` gave an IC50 of under 1000 nM.
`C[C@@H]1CN(c2ccc3c(n2)-c2sc(-c4ncnn4-c4ccc(F)cc4F)cc2CCO3)C[C@H](C)N1CCF` gave an IC50 of under 1000 nM.
Work on `NCCn1cc(-c2ccc3c(c2)OCCc2sc(-c4ncnn4CC(F)(F)F)nc2-3)cn1` yielded an IC50 of under 1000 nM.
For `CNC(=O)c1ccc2c(c1)OCCc1cc(C(=O)N(C)c3cc(C(=O)N(C)CCO)ccc3Cl)sc1-2`, the IC50 was under 1000 nM.
For `CNC(=O)c1ccc2c(c1)OCCc1cc(C(=O)N(C)c3cc(C(=O)NCCO)ccc3Cl)sc1-2`, the IC50 was under 1000 nM.
With `FC(F)(F)Cn1ncnc1-c1nc2c(s1)CCOc1ccc(-c3cnn(CCN4CCOCC4)c3)cc1-2` the IC50 was under 1000 nM.
`CC(C)CCN(C)C(=O)c1nc2c(s1)CCOc1cc(-c3cn[nH]c3)ccc1-2` gave an IC50 of under 1000 nM.
Compound `CC(C)n1ncnc1-c1nc2c(s1)CCOc1cc(C(=O)NCCOCCO)ccc1-2` has an IC50 of under 1000 nM.
`CS(=O)(=O)N1CCN(c2ccc3c(n2)-c2sc(-c4ncnn4-c4ccc(F)cc4F)cc2CCO3)CC1` gave an IC50 of under 1000 nM.
`Nc1nc(-c2cc3c(s2)-c2ccc(C(=O)NC4COC4)cc2OCC3)n(-c2ccc(F)cc2F)n1` was tested, and the IC50 was under 1000 nM.
`O=C(c1nc2c(s1)CCOc1cc(-c3cn[nH]c3)ccc1-2)N1CC[C@@H](N2CCOCC2)C1` gave an IC50 of under 1000 nM.
`CC(C)n1ncnc1-c1nc2c(s1)CCOc1cc(C3CCN(S(C)(=O)=O)C3)ccc1-2` (stereo unspecified) gave an IC50 of under 1000 nM.
For `Cc1nc(-c2nc3c(s2)CCOc2cc(CNC(N)=O)ccc2-3)n(C(C)C)n1`, the IC50 was under 1000 nM.
For `CC(O)CCc1ccc2c(n1)-c1sc(-c3ncnn3-c3ccc(F)cc3F)cc1CCO2` (stereo unspecified), the IC50 was under 1000 nM.
With `CC(C)n1ncnc1-c1nc2c(s1)CCOc1ccc(-c3cccnc3C(F)(F)F)cc1-2` the IC50 was under 1000 nM.
In the case of `CN(C(=O)c1cc2c(s1)-c1ccc(C(=O)NCCS(C)(=O)=O)cc1OCC2)c1cc(C(=O)N2CC(F)(F)C2)ccc1Cl`, the IC50 is reported as under 1000 nM.
Work on `CNC(=O)c1ccc2c(c1)OCCc1cc(C(=O)N(C)c3cc(C(=O)NC[C@@H](C)O)ccc3Cl)sc1-2` yielded an IC50 of under 1000 nM.
Compound `CC(C)n1ncnc1-c1nc2c(s1)CCOc1cc(-c3cn(CCO)cn3)ccc1-2` has an IC50 of under 1000 nM.
`CNC(=O)CN1CCC(c2ccc3c(c2)OCCc2sc(-c4ncnn4C(C)C)nc2-3)CC1` showed an IC50 of under 1000 nM.
In the case of `CC(C)n1cnnc1-c1nc2c(s1)CCOc1cc(C(=O)Nc3ccon3)ccc1-2`, the IC50 is reported as under 1000 nM.
In the case of `CC(=O)N1CC(Nc2ccc3c(n2)-c2sc(-c4ncnn4-c4ccc(F)cc4F)cc2CCO3)C1`, the IC50 is reported as under 1000 nM.
`CC(C)n1ncnc1-c1nc2c(s1)CCOc1ccc(-c3cc[nH]c(=O)c3)cc1-2` was tested, and the IC50 was under 1000 nM.
`O=C(c1nc2c(s1)CCOc1cc(-c3cn[nH]c3)ccc1-2)N1CCC(c2ccc(F)cc2F)CC1` was tested, and the IC50 was under 1000 nM.
With `Cc1nc(-c2nc3c(s2)CCOc2cc(CN)ccc2-3)n(C(C)C)n1` the IC50 was under 1000 nM.
For `Fc1ccc(-n2ncnc2-c2cc3c(s2)-c2nc(-c4ccc(N5CCCCC5)nc4)ccc2OCC3)c(F)c1`, the IC50 was under 1000 nM.
`CC(C)n1ncnc1-c1cc2c(s1)-c1ccc(-c3cnn(CCO)c3)cc1OCC2` gave an IC50 of under 1000 nM.
Compound `CC(C)n1ncnc1-c1nc2c(s1)CCOc1ccc(-c3ccc(N4CCCC4)nc3)cc1-2` has an IC50 of under 1000 nM.
With `Oc1ccc(-c2ccc3c(n2)-c2sc(-c4ncnn4-c4ccc(F)cc4F)cc2CCO3)cn1` the IC50 was under 1000 nM.
Work on `CC(C)n1ncnc1-c1nc2c(s1)CCOc1cc(C3CCN(CCS(C)(=O)=O)CC3)ccc1-2` yielded an IC50 of under 1000 nM.
`CC(C)n1nc(N)nc1-c1cc2c(s1)-c1ccc(-c3cnn(CC(C)(C)O)c3)cc1OCC2` showed an IC50 of under 1000 nM.
Compound `CC(C)n1ncnc1-c1nc2c(s1)CCOc1ccc(-c3ccc(S(C)(=O)=O)cc3)cc1-2` has an IC50 of under 1000 nM.
`CC(C)(O)Cn1cc(-c2ccc3c(c2)OCCc2sc(N4C(=O)NCC4(C)C)nc2-3)cn1` was tested, and the IC50 was under 1000 nM.
For `COCCNc1ccc2c(n1)-c1sc(-c3ncnn3-c3ccc(F)cc3F)cc1CCO2`, the IC50 was under 1000 nM.
With `CC(C)(O)Cn1cc(-c2ccc3c(c2)OCCc2sc(-c4ncnn4CCN4CCOCC4)nc2-3)cn1` the IC50 was under 1000 nM.
With `Fc1ccc(-n2ncnc2-c2cc3c(s2)-c2nc(-c4ccc(N5CCOCC5)nc4)ccc2OCC3)c(F)c1` the IC50 was under 1000 nM.
`CCN(CC)CCn1cc(-c2ccc3c(c2)OCCc2sc(-c4ncnn4CC(F)(F)F)nc2-3)cn1` gave an IC50 of under 1000 nM.
With `CC(C)n1nc(N)nc1-c1nc2c(s1)CCOc1cc(C3CN(CCS(C)(=O)=O)C3)ccc1-2` the IC50 was under 1000 nM.
In the case of `COc1ccc(CNc2ccc3c(n2)-c2sc(-c4ncnn4-c4ccc(F)cc4F)cc2CCO3)cc1`, the IC50 is reported as under 1000 nM.
In the case of `CC(C)N(CCO)C(=O)c1nc2c(s1)CCOc1ccc(-c3ccc(N)nc3)cc1-2`, the IC50 is reported as under 1000 nM.
Work on `C[C@@H](O)CNC(=O)c1ccc(Cl)c(N(C)C(=O)c2cc3c(s2)-c2ccc(C(=O)NCCS(C)(=O)=O)cc2OCC3)c1` yielded an IC50 of under 1000 nM.
In the case of `CC(C)N(CCO)C(=O)c1nc2c(s1)CCOc1ccc(-c3cnn(CCO)c3)cc1-2`, the IC50 is reported as under 1000 nM.
`CS(=O)(=O)N1CC(Nc2ccc3c(n2)-c2sc(-c4ncnn4-c4ccc(F)cc4F)cc2CCO3)C1` showed an IC50 of under 1000 nM.
`CNS(=O)(=O)CCN1CC(c2ccc3c(c2)OCCc2sc(-c4ncnn4C(C)C)nc2-3)C1` showed an IC50 of under 1000 nM.
Compound `CN1CCN(c2ccc3c(n2)-c2sc(-c4ncnn4-c4ccc(F)cc4F)cc2CCO3)CC1` has an IC50 of under 1000 nM.
`Cc1nc(-c2nc3c(s2)CCOc2cc([C@H]4CCCNC4)ccc2-3)n(C(C)C)n1` was tested, and the IC50 was under 1000 nM.
Work on `CC(C)n1ncnc1-c1nc2c(s1)CCOc1ccc(C(O)C(F)(F)F)cc1-2` (stereo unspecified) yielded an IC50 of under 1000 nM.
Compound `CC(C)(O)Cn1cc(-c2ccc3c(c2)OCCc2sc(-c4nccn4C4CNC4)nc2-3)cn1` has an IC50 of under 1000 nM.
For `COC[C@@H]1CCCN(C(=O)c2nc3c(s2)CCOc2cc(-c4cn[nH]c4)ccc2-3)C1`, the IC50 was under 1000 nM.
For `CC(C)n1ncnc1-c1nc2c(s1)CCOc1cc(C3(F)CCN(CC(=O)N(C)C)CC3)ccc1-2`, the IC50 was under 1000 nM.
`CC(C)n1ncnc1-c1nc2c(s1)CCOc1ccc(C#N)cc1-2` showed an IC50 of under 1000 nM.
Compound `CN1C(=O)N(c2nc3c(s2)CCOc2cc(-c4cnn(CC(C)(C)O)c4)ccc2-3)C(C)(C)C1=O` has an IC50 of under 1000 nM.
With `CNC(=O)c1ccc2c(c1)OCCc1cc(C(=O)N(C)c3cc(C(=O)N4CC(F)(F)C4)ccc3Cl)sc1-2` the IC50 was under 1000 nM.
With `CC(C)n1ncnc1-c1nc2c(s1)CCOc1cc(C3(O)CCNCC3)ccc1-2` the IC50 was under 1000 nM.
Compound `Cc1nc(-c2nc3c(s2)CCOc2cc(C4CN(C(=O)[C@H](C)O)C4)ccc2-3)n(C(C)C)n1` has an IC50 of under 1000 nM.
Work on `CC(C)(O)Cn1cc(-c2ccc3c(c2)OCCc2sc(-c4ncnn4CCO)nc2-3)cn1` yielded an IC50 of under 1000 nM.
With `O=C(O)c1cccc(-c2ccc3c(c2)OCCc2sc(-c4ncnn4CC(F)(F)F)nc2-3)c1` the IC50 was under 1000 nM.
Work on `CC(C)n1cnnc1-c1nc2c(s1)CCOc1cc(CNCC(F)(F)F)ccc1-2` yielded an IC50 of under 1000 nM.
In the case of `CC(C)N(CCO)C(=O)c1nc2c(s1)CCOc1cc(-c3cnn(C)c3)ccc1-2`, the IC50 is reported as under 1000 nM.
Work on `COc1ncccc1-c1ccc2c(n1)-c1sc(-c3ncnn3-c3ccc(F)cc3F)cc1CCO2` yielded an IC50 of under 1000 nM.
`CC(C)CN(C)C(=O)c1nc2c(s1)CCOc1cc(-c3cn[nH]c3)ccc1-2` showed an IC50 of under 1000 nM.
For `O=C(NCCO)c1ccc2c(c1)OCCc1sc(-c3ncnn3CC(F)(F)F)nc1-2`, the IC50 was under 1000 nM.
Compound `CNC(=O)c1ccc2c(c1)OCCc1cc(C(=O)N(C)c3cc(C(=O)NC[C@H](C)O)ccc3Cl)sc1-2` has an IC50 of under 1000 nM.
In the case of `O=C(c1nc2c(s1)CCOc1cc(-c3cn[nH]c3)ccc1-2)N1CCN(CCO)CC1`, the IC50 is reported as under 1000 nM.
For `CC(C)n1ncnc1-c1nc2c(s1)CCOc1ccc(-c3c[nH]c(=O)[nH]c3=O)cc1-2`, the IC50 was under 1000 nM.
With `O=C(c1nc2c(s1)CCOc1cc(-c3cn[nH]c3)ccc1-2)N1CCC1` the IC50 was under 1000 nM.
`CC(C)n1ncnc1-c1cc2c(s1)-c1ccc(-c3cccc(S(C)(=O)=O)c3)cc1OCC2` showed an IC50 of under 1000 nM.
Work on `COCCn1cc(-c2ccc3c(c2)OCCc2sc(-c4ncnn4C(C)C)nc2-3)ccc1=O` yielded an IC50 of under 1000 nM.
`C[C@@H]1CN(c2ccc3c(n2)-c2sc(-c4ncnn4-c4ccc(F)cc4F)cc2CCO3)C[C@H](C)N1C(=O)C(F)F` showed an IC50 of under 1000 nM.
In the case of `CC(C)n1ncnc1-c1nc2c(s1)CCOc1ccc(-c3ccc(=O)[nH]c3)cc1-2`, the IC50 is reported as under 1000 nM.
With `CS(=O)(=O)n1cc(-c2ccc3c(c2)OCCc2sc(-c4ncnn4CC(F)(F)F)nc2-3)cn1` the IC50 was under 1000 nM.
`Cc1cccc(N2CCN(C(=O)c3nc4c(s3)CCOc3cc(-c5cn[nH]c5)ccc3-4)CC2)n1` gave an IC50 of under 1000 nM.
`CC(C)n1ncnc1-c1nc2c(s1)CCOc1cc(-c3cnn(CCOP(=O)(O)O)c3)ccc1-2` showed an IC50 of under 1000 nM.
`CN(C)C(=O)CNc1ccc2c(n1)-c1sc(-c3ncnn3-c3ccc(F)cc3F)cc1CCO2` was tested, and the IC50 was under 1000 nM.
Work on `N#CCCN(C(=O)c1nc2c(s1)CCOc1cc(-c3cn[nH]c3)ccc1-2)C1CCCC1` yielded an IC50 of under 1000 nM.
Compound `CC(=O)N1CC2CC1CN2c1ccc2c(n1)-c1sc(-c3ncnn3-c3ccc(F)cc3F)cc1CCO2` (stereo unspecified) has an IC50 of under 1000 nM.
Compound `O=C(c1nc2c(s1)CCOc1cc(-c3cn[nH]c3)ccc1-2)N1CCN(C[C@H]2CCCO2)CC1` has an IC50 of under 1000 nM.
With `COc1cncc(-c2ccc3c(c2)-c2nc(-c4ncnn4C(C)C)sc2CCO3)c1` the IC50 was under 1000 nM.
For `CC(C)n1ncnc1-c1nc2c(s1)CCOc1ccc(/C=C/S(C)(=O)=O)cc1-2`, the IC50 was under 1000 nM.
Compound `CC(C)n1ncnc1-c1nc2c(s1)CCOc1cc(C3CCN(C(C)(C)C(N)=O)CC3)ccc1-2` has an IC50 of under 1000 nM.
`Cc1nc(-c2nc3c(s2)CCOc2cc(C(C)NC(N)=O)ccc2-3)n(C(C)C)n1` (stereo unspecified) was tested, and the IC50 was under 1000 nM.
`Fc1ccc(-n2ncnc2-c2cc3c(s2)-c2nc(-c4ccc(N5CCCC5)nc4)ccc2OCC3)c(F)c1` was tested, and the IC50 was under 1000 nM.
For `CC(C)n1ncnc1-c1nc2c(s1)CCOc1ccc(C3CCN(C(=O)[C@H](C)O)CC3)cc1-2`, the IC50 was under 1000 nM.
